In US7091202B2, “4-arylspirocycloalkyl-2-aminopyrimidine carboxamide KCNQ potassium channel modulators” (Bristol-Myers Squibb Company, priority 2004, dated 2006) one finds EC50 data, which are given here for 31 molecules.

Each structure is given as a SMILES string.

This test addresses T1, hQ23 (HEK-293 cell line stably transfected with one of the members of the KCNQ family) (Homo sapiens, UniProt O43525+O43526).
T1 construct: expressed in transfected cells; host or cells: HEK-293, stably transfected
The experiment in a line: Thallium flux assay for KCNQ channel blockers (FLIPR, BTC dye). The format is cell-based. To be noted: hQ23 cells, thallium flux. In a few lines:
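FLIPR thallium flux readout (BTC dye, 2 μM AM ester) in stably transfected KCNQ HEK-293 cells, chloride-free HEPES buffer pH 7.3, Tl2SO4 stimulus. IC50s were fitted with a single-site logistic equation across 10 points at 1:3 dilutions, defined as 50% of positive-control block; minimal active concentration meant signal ≥4 SD over DMSO controls.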

T1 sequence (O43526 whole entry): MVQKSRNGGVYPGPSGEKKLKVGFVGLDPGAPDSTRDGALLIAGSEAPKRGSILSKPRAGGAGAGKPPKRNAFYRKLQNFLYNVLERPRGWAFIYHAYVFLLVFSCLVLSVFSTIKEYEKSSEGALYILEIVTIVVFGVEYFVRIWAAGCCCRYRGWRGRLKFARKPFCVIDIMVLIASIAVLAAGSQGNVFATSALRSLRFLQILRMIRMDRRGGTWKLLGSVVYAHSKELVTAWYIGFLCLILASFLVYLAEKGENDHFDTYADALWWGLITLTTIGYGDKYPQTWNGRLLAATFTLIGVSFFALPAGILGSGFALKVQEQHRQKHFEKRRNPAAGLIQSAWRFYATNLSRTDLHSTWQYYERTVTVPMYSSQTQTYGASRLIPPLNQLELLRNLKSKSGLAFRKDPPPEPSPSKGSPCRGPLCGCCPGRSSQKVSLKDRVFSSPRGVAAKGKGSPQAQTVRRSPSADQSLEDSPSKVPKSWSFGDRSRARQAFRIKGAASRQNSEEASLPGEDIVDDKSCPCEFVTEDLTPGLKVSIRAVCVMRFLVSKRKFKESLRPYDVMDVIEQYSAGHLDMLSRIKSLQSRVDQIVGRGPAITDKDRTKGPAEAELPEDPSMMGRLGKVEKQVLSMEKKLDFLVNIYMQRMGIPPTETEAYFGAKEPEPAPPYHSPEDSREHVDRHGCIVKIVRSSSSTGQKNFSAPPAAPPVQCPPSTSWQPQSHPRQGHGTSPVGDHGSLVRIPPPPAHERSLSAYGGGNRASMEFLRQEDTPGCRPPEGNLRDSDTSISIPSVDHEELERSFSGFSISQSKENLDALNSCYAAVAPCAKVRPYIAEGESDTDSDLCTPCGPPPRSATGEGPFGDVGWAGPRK
T1 sequence (O43525 whole entry): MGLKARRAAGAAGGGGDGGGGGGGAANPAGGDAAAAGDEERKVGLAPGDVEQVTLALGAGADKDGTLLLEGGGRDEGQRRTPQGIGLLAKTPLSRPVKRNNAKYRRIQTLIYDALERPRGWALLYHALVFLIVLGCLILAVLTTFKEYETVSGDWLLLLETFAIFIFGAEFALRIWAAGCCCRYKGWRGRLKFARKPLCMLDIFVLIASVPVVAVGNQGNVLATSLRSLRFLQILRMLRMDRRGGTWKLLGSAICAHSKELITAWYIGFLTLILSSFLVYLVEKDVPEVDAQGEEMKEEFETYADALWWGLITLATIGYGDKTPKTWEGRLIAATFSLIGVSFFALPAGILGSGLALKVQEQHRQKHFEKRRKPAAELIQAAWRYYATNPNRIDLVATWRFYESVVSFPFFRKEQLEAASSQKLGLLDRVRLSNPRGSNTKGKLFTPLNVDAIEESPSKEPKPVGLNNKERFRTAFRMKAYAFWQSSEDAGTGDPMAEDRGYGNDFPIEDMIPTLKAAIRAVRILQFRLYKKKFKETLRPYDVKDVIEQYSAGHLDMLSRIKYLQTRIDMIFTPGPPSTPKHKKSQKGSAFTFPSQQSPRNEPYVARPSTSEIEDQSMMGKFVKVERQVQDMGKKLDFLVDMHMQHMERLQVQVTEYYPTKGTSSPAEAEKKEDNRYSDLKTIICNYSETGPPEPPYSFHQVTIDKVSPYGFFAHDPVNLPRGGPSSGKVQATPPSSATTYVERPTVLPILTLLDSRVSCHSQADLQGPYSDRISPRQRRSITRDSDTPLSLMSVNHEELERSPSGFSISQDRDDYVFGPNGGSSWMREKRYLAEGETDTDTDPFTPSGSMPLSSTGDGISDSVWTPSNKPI

For the molecule `CCC(C)Nc1ncc(C(=O)NC(C)c2cccc3ccccc23)c(C2(c3ccccc3)CCCC2)n1` (stereo not shown) [Example 99, 5-pyrimidinecarboxamide, 2-[(1-methylpropyl)amino]-N-[1-(1-naphthalenyl)ethyl]-4-(1-phenylcyclopentyl)-], the response was half-maximal at 0.293 µM (EC50).
For the molecule `CC(NC(=O)c1cnc(NC2CCCC2)nc1C1(c2ccccc2)CCCC1)c1cccc2ccccc12` (stereo not shown) [Example 100, 5-pyrimidinecarboxamide, 2-(cyclopentylamino)-N-[1-(1-naphthalenyl)ethyl]-4-(1-phenylcyclopentyl)-], the midpoint of the response, the EC50, lay at 0.16 µM.
`O=C(NCc1cccc2ccccc12)c1cnc(NC2CC2)nc1C1(c2ccccc2)CCCC1` [Example 101, 5-pyrimidinecarboxamide, 2-(cyclopropylamino)-N-(1-naphthalenylmethyl)-4-(1-phenylcyclopentyl)-]: the EC50 (usually the concentration that produces a half-maximal response) is 0.669 µM.
Under `CC1CCC(Nc2ncc(C(=O)NCc3cccc4ccccc34)c(C3(c4ccccc4)CCCC3)n2)CC1` (stereo not shown) [Example 102, 5-pyrimidinecarboxamide, 2-[(4-methylcyclohexyl)amino]-N-(1-naphthalenylmethyl)-4-(1-phenylcyclopentyl)-] stands 0.194 µM.
For `CC1CCCN(c2ncc(C(=O)NCc3cccc4ccccc34)c(C3(c4ccccc4)CCCC3)n2)C1` (stereo not shown) [Example 103, 5-pyrimidinecarboxamide, 2-(3-methyl-1-piperidinyl)-N-(1-naphthalenylmethyl)-4-(1-phenylcyclopentyl)-], it took 0.066 µM to reach a half-maximal effect (EC50).
The molecule `CC1CCN(c2ncc(C(=O)NCc3cccc4ccccc34)c(C3(c4ccccc4)CCCC3)n2)CC1` [Example 104, 5-pyrimidinecarboxamide, 2-(4-methyl-1-piperidinyl)-N-(1-naphthalenylmethyl)-4-(1-phenylcyclopentyl)-] showed an EC50 of 0.01 µM.
Under `CCC(C)Nc1ncc(C(=O)NCc2cccc3ccccc23)c(C2(c3ccccc3)CCCC2)n1` (stereo not shown) [Example 105, 5-pyrimidinecarboxamide, 2-[(1-methylpropyl)amino]-N-(1-naphthalenylmethyl)-4-(1-phenylcyclopentyl)-] stands 0.604 µM; under `CC1CCC(Nc2ncc(C(=O)NCc3ccc(Cl)c(Cl)c3)c(C3(c4ccccc4)CCCC3)n2)CC1` (stereo not shown) [Example 106, 5-pyrimidinecarboxamide, N-[(3,4-dichlorophenyl)methyl]-2-[(4-methylcyclohexyl)amino]-4-(1-phenylcyclopentyl)-], 0.13 µM.
To `CC1CCCN(c2ncc(C(=O)NCc3ccc(Cl)c(Cl)c3)c(C3(c4ccccc4)CCCC3)n2)C1` (stereo not shown) [Example 107, 5-pyrimidinecarboxamide, N-[(3,4-dichlorophenyl)methyl]-2-(3-methyl-1-piperidinyl)-4-(1-phenylcyclopentyl)-] belongs 0.111 µM; to `CC1CCN(c2ncc(C(=O)NCc3ccc(Cl)c(Cl)c3)c(C3(c4ccccc4)CCCC3)n2)CC1` [Example 108, 5-pyrimidinecarboxamide, N-[(3,4-dichlorophenyl)methyl]-2-(4-methyl-1-piperidinyl)-4-(1-phenylcyclopentyl)-], 0.037 µM; to `O=C(NCc1ccc(Cl)cc1Cl)c1cnc(NC2CC2)nc1C1(c2ccccc2)CCCC1` [Example 109, 5-pyrimidinecarboxamide, 2-(cyclopropylamino)-N-[(2,4-dichlorophenyl)methyl]-4-(1-phenylcyclopentyl)-], 0.504 µM.
`CC1CCC(Nc2ncc(C(=O)NCc3ccc(Cl)cc3Cl)c(C3(c4ccccc4)CCCC3)n2)CC1` (stereo not shown) [Example 110, 5-pyrimidinecarboxamide, N-[(2,4-dichlorophenyl)methyl]-2-[(4-methylcyclohexyl)amino]-4-(1-phenylcyclopentyl)-] returned an EC50 of 0.068 µM.
To `O=C(NCc1ccc(Cl)cc1Cl)c1cnc(N2CCCC2)nc1C1(c2ccccc2)CCCC1` [Example 111, 5-pyrimidinecarboxamide, N-[(2,4-dichlorophenyl)methyl]-4-(1-phenylcyclopentyl)-2-(1-pyrrolidinyl)-] belongs 0.192 µM; to `CC1CCCN(c2ncc(C(=O)NCc3ccc(Cl)cc3Cl)c(C3(c4ccccc4)CCCC3)n2)C1` (stereo not shown) [Example 112, 5-pyrimidinecarboxamide, N-[(2,4-dichlorophenyl)methyl]-2-(3-methyl-1-piperidinyl)-4-(1-phenylcyclopentyl)-], 0.064 µM; to `CC1CCN(c2ncc(C(=O)NCc3ccc(Cl)cc3Cl)c(C3(c4ccccc4)CCCC3)n2)CC1` [Example 113, 5-pyrimidinecarboxamide, N-[(2,4-dichlorophenyl)methyl]-2-(4-methyl-1-piperidinyl)-4-(1-phenylcyclopentyl)-], 0.01 µM.
To `CCC(C)Nc1ncc(C(=O)NCc2ccc(Cl)cc2Cl)c(C2(c3ccccc3)CCCC2)n1` (stereo not shown) [Example 114, 5-pyrimidinecarboxamide, N-[(2,4-dichlorophenyl)methyl]-2-[(1-methylpropyl)amino]-4-(1-phenylcyclopentyl)-] belongs 0.102 µM; to `O=C(NCc1ccc(Cl)cc1Cl)c1cnc(NC2CCCC2)nc1C1(c2ccccc2)CCCC1` [Example 115, 5-pyrimidinecarboxamide, 2-(cyclopentylamino)-N-[(2,4-dichlorophenyl)methyl]-4-(1-phenylcyclopentyl)-], 0.136 µM; to `CC1CCC(Nc2ncc(C(=O)NCc3ccc(F)cc3F)c(C3(c4ccccc4)CCCC3)n2)CC1` (stereo not shown) [Example 116, 5-pyrimidinecarboxamide, N-[(2,4-difluorophenyl)methyl]-2-[(4-methylcyclohexyl)amino]-4-(1-phenylcyclopentyl)-], 0.085 µM.
The molecule `O=C(NCc1ccc(F)cc1F)c1cnc(N2CCCC2)nc1C1(c2ccccc2)CCCC1` [Example 117, 5-pyrimidinecarboxamide, N-[(2,4-difluorophenyl)methyl]-4-(1-phenylcyclopentyl)-2-(1-pyrrolidinyl)-] registered an EC50 of 0.127 µM.
In turn, `CC1CCCN(c2ncc(C(=O)NCc3ccc(F)cc3F)c(C3(c4ccccc4)CCCC3)n2)C1` (stereo not shown) [Example 118, 5-pyrimidinecarboxamide, N-[(2,4-difluorophenyl)methyl]-2-(3-methyl-1-piperidinyl)-4-(1-phenylcyclopentyl)-] gave an EC50 of 0.037 µM.
Under `CC1CCN(c2ncc(C(=O)NCc3ccc(F)cc3F)c(C3(c4ccccc4)CCCC3)n2)CC1` [Example 119, 5-pyrimidinecarboxamide, N-[(2,4-difluorophenyl)methyl]-2-(4-methyl-1-piperidinyl)-4-(1-phenylcyclopentyl)-] stands 0.122 µM.
In turn, `CCC(C)Nc1ncc(C(=O)NCc2ccc(F)cc2F)c(C2(c3ccccc3)CCCC2)n1` (stereo not shown) [Example 120, 5-pyrimidinecarboxamide, N-[(2,4-difluorophenyl)methyl]-2-[(1-methylpropyl)amino]-4-(1-phenylcyclopentyl)-] showed an EC50 of 0.062 µM.
`O=C(NCc1ccc(F)cc1F)c1cnc(NC2CCCC2)nc1C1(c2ccccc2)CCCC1` [Example 121, 5-pyrimidinecarboxamide, 2-(cyclopentylamino)-N-[(2,4-difluorophenyl)methyl]-4-(1-phenylcyclopentyl)-] had an EC50 of 0.024 µM.
Under `O=C(NCc1cc(F)cc(C(F)(F)F)c1)c1cnc(NC2CC2)nc1C1(c2ccccc2)CCCC1` [Example 122, 5-pyrimidinecarboxamide, 2-(cyclopropylamino)-N-[[3-fluoro-5-(trifluoromethyl)phenyl]methyl]-4-(1-phenylcyclopentyl)-] stands 0.01 µM; under `CC1CCC(Nc2ncc(C(=O)NCc3cc(F)cc(C(F)(F)F)c3)c(C3(c4ccccc4)CCCC3)n2)CC1` (stereo not shown) [Example 123, 5-pyrimidinecarboxamide, N-[[3-fluoro-5-(trifluoromethyl)phenyl]methyl]-2-[(4-methylcyclohexyl)amino]-4-(1-phenylcyclopentyl)-], 0.01 µM.
Under `O=C(NCc1cc(F)cc(C(F)(F)F)c1)c1cnc(N2CCCC2)nc1C1(c2ccccc2)CCCC1` [Example 124, 5-pyrimidinecarboxamide, N-[[3-fluoro-5-(trifluoromethyl)phenyl]methyl]-4-(1-phenylcyclopentyl)-2-(1-pyrrolidinyl)-] stands 0.24 µM.
Under `CN1CCN(c2ncc(C(=O)NCc3cc(F)cc(C(F)(F)F)c3)c(C3(c4ccccc4)CCCC3)n2)CC1` [Example 125, 5-pyrimidinecarboxamide, N-[[3-fluoro-5-(trifluoromethyl)phenyl]methyl]-2-(4-methyl-1-piperazinyl)-4-(1-phenylcyclopentyl)-] stands 0.375 µM; under `CC1CCCN(c2ncc(C(=O)NCc3cc(F)cc(C(F)(F)F)c3)c(C3(c4ccccc4)CCCC3)n2)C1` (stereo not shown) [Example 126, 5-pyrimidinecarboxamide, N-[[3-fluoro-5-(trifluoromethyl)phenyl]methyl]-2-(3-methyl-1-piperidinyl)-4-(1-phenylcyclopentyl)-], 0.319 µM.
For the molecule `CC1CCN(c2ncc(C(=O)NCc3cc(F)cc(C(F)(F)F)c3)c(C3(c4ccccc4)CCCC3)n2)CC1` [Example 127, 5-pyrimidinecarboxamide, N-[[3-fluoro-5-(trifluoromethyl)phenyl]methyl]-2-(4-methyl-1-piperidinyl)-4-(1-phenylcylopentyl)-], the EC50 turned out to be 0.01 µM.
Consider `CCC(C)Nc1ncc(C(=O)NCc2cc(F)cc(C(F)(F)F)c2)c(C2(c3ccccc3)CCCC2)n1` (stereo not shown) [Example 128, 5-pyrimidinecarboxamide, N-[[3-fluoro-5-(trifluoromethyl)phenyl]methyl]-2-[(1-methylpropyl)amino]-4-(1-phenylcyclopentyl)-], for which the EC50 was determined as 0.01 µM.
To `CN(C)CCNc1ncc(C(=O)NCc2cc(F)cc(C(F)(F)F)c2)c(C2(c3ccccc3)CCCC2)n1` [Example 129, 5-pyrimidinecarboxamide, 2-[[2-(dimethylamino)ethyl]amino]-N-[[3-fluoro-5-(trifluoromethyl)phenyl]methyl]-4-(1-phenylcyclopentyl)-] belongs 0.02 µM.
